The values that follow come from patent US20260001889A1, “COMPOSITIONS USEFUL FOR MODULATING SPLICING” (Skyhawk Therapeutics, Inc., priority 2022, published 2026).

pEC50, pIC50: −log10 of the molar value.

One test relates to ATXN3-HiBiT protein. The experiment in a line: ATXN3 Total Protein Assay (Kelly-ATXN3-HiBiT luminescence). The settings on record: Kelly-ATXN3-HiBiT cells, 48 h after addition of compound. In kind it is cell-based. The method, boiled down: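 Endogenous ATXN3-HiBiT protein in knock-in Kelly neuroblastoma cells measured by lytic HiBiT luminescence 48 h post-compound (added 24 h after seeding 2000 cells/well). Values are fold changes relative to DMSO, with viability from a parallel CellTiter-Glo plate.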

The subject of test [1] is ATXN3 transcripts containing exon 4. The experiment in a line: ATXN3 Quantitative Splicing Assay (qPCR, E4E5 primers/probe). In kind it is cell-based. The following applies: Homo sapiens, SK-N-MC cells, compounds for 24 h. The method, boiled down:
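Exon 4-containing ATXN3 transcripts are quantified by TaqMan qPCR (E4E5 primers/probe) on cell-lysate cDNA, with total ATXN3 from the E8E9 set. Source cells: human neuroblastoma SK-N-MC, exposed for 24 h to compound at 30 μM down to 0.6 nM.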
Background: Real-time PCR tracks product formation cycle by cycle.

Another test deals with total ATXN3 protein. Briefly: ATXN3 Total Protein Assay (Mesoscale Discovery, SK-N-MC cells). In kind it is cell-based, Human. The following applies: incubation for 48 hours, MSD assay. In short, it runs like this: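 Readout: MSD electrochemiluminescence immunoassay of lysates, calibrated with recombinant ATXN3 and using mouse/rabbit anti-ATXN3 antibody pair. Cells (SK-N-MC, human) were exposed for 48 h to compound doses between 30 μM and 0.6 nM.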

Take `Cc1c(C[C@@H](N)[C@H](C)F)oc2c(NCc3sccc3F)cc(Cl)nc12` [Compound 142, 2-[(2R,3S)-2-amino-3-fluorobutyl]-5-chloro-7-{[(3-fluoro-2-thienyl)methyl]amino}-3-methyl-1-oxa-4-azaindene]: the pEC50 (commonly the negative decadic logarithm of the EC50, by convention in mol/L) in the test with ATXN3-HiBiT protein was 6.30 to 7.00. Besides, the pIC50 (in test [1]; with total ATXN3 protein) was 6.30 to 7.00 each time.
In turn, `C[C@H](F)[C@H](N)Cc1oc2c(NCc3sccc3F)cc(Cl)nc2c1Br` [Compound 96, 2-[(2R,3S)-2-amino-3-fluorobutyl]-3-bromo-5-chloro-7-{[(3-fluoro-2-thienyl)methyl]amino}-1-oxa-4-azaindene] had a negative logarithm of the EC50 (pEC50) in the test with ATXN3-HiBiT protein of 6.30 to 7.00. Moreover, the pIC50 (in test [1]; in the test on total ATXN3 protein) was 6.30 to 7.00 in each case.
Regarding `C[C@H](F)[C@H](N)Cc1oc2c(NCc3cccs3)cc(C#N)nc2c1Br` [Compound 103, 2-[(2R,3S)-2-amino-3-fluorobutyl]-3-bromo-7-thenylamino-1-oxa-4-aza-5-indenecarbonitrile], in the test with ATXN3-HiBiT protein, the pEC50 is 6.30 to 7.00. For the same compound, the pIC50 (in test [1]; in the test with total ATXN3 protein) was 6.30 to 7.00 in each case.
For the compound `C[C@H](N)Cc1oc2c(NCc3cccs3)cc(Cl)nc2c1Br` [Compound 17, 2-[(S)-2-aminopropyl]-3-bromo-5-chloro-7-thenylamino-1-oxa-4-azaindene], in the test with ATXN3-HiBiT protein, the pEC50 was 7.00 to 11.00. Moreover, the pIC50 (in test [1]; in the test with total ATXN3 protein) was 7.00 to 11.00 each time.
`C#Cc1cc(NCc2cccs2)c2oc(C[C@H](C)N)c(C#C)c2n1` [Compound 162, 2-[(S)-2-aminopropyl]-3,5-diethynyl-7-thenylamino-1-oxa-4-azaindene] gave a pEC50 in the test on ATXN3-HiBiT protein of 6.30 to 7.00. For the same compound, the pIC50 (in test [1]; with total ATXN3 protein) was 7.00 to 11.00 in each case.
The compound `COC[C@H](N)Cc1oc2c(NCc3ccncc3)cc(Cl)nc2c1Cl` [Compound 113, 2-[(R)-2-amino-3-methoxypropyl]-3,5-dichloro-7-{[(4-pyridyl)methyl]amino}-1-oxa-4-azaindene] showed a pEC50 with ATXN3-HiBiT protein of 6.30 to 7.00. Further, the pIC50 (in test [1]; in the test with total ATXN3 protein) was 6.30 to 7.00 throughout.
Regarding `C#Cc1c(C[C@@H](N)COC(F)F)oc2c(NCc3cccs3)cc(Cl)nc12` [Compound 196, 2-[(R)-2-amino-3-difluoromethoxypropyl]-5-chloro-3-ethynyl-7-thenylamino-1-oxa-4-azaindene], the pEC50 in the test with ATXN3-HiBiT protein is 7.00 to 11.00. For the same compound, the pIC50 (in test [1]; with total ATXN3 protein) was 7.00 to 11.00 throughout.
As to `C[C@H](N)C(F)(F)c1oc2c(NCc3ccco3)cc(Cl)nc2c1Cl` [Compound 239, 2-[(S)-2-amino-1,1-difluoropropyl]-3,5-dichloro-7-(furfurylamino)-1-oxa-4-azaindene], the pEC50 with ATXN3-HiBiT protein is 6.30 to 7.00. The pIC50 (in test [1]; with total ATXN3 protein) was 6.30 to 7.00 each time.
The compound `C[C@H](N)Cc1oc2c(NCc3cccs3)cc(Cl)nc2c1-c1ncco1` [Compound 262, 2-[(S)-2-aminopropyl]-5-chloro-3-(1,3-oxazol-2-yl)-7-thenylamino-1-oxa-4-azaindene] gave a pEC50 with ATXN3-HiBiT protein of 6.30 to 7.00. Also, the pIC50 (in test [1]; in the test on total ATXN3 protein) was 6.30 to 7.00 in each case.
As for `C[C@H](F)[C@H](N)Cc1oc2c(NCc3cccs3)cc(Cl)nc2c1-c1ccco1` [Compound 331, 2-[(2R,3S)-2-amino-3-fluorobutyl]-5-chloro-3-(2-furyl)-7-thenylamino-1-oxa-4-azaindene], the pEC50 in the test with ATXN3-HiBiT protein was 5.30 to 6.30. The pIC50 (in test [1]; in the test with total ATXN3 protein) was 5.30 to 6.30 in each case.
Compound `N[C@@H](COC(F)F)Cc1oc2c(NCc3cccs3)cc(Cl)nc2c1Cl` [Compound 188, 2-[(R)-2-amino-3-difluoromethoxypropyl]-3,5-dichloro-7-thenylamino-1-oxa-4-azaindene] showed a pEC50 in the test on ATXN3-HiBiT protein of 7.00 to 11.00. Further, the negative-log IC50 (pIC50) (in test [1]; in the test with total ATXN3 protein) was 6.30 to 7.00 in each case.
`C#Cc1c(C[C@@H](N)C2CC(F)(F)C2)oc2c(NCc3cccs3)cc(Cl)nc12` [Compound 139, 2-[(R)-2-amino-2-(3,3-difluorocyclobutyl)ethyl]-5-chloro-3-ethynyl-7-thenylamino-1-oxa-4-azaindene] gave a pEC50 in the test on ATXN3-HiBiT protein of 5.30 to 6.30. Besides, the pIC50 (in test [1]; with total ATXN3 protein) was 5.30 to 6.30 each time.
On to `N[C@H](Cc1oc2c(NCc3cccs3)cc(Cl)nc2c1Cl)CC(F)(F)F` [Compound 25, 2-[(R)-2-amino-4,4,4-trifluorobutyl]-3,5-dichloro-7-thenylamino-1-oxa-4-azaindene], for which the pEC50 with ATXN3-HiBiT protein is 6.30 to 7.00. Besides, the pIC50 (in test [1]; with total ATXN3 protein) was 5.30 to 6.30 each time.
Turning to `C=Cc1cc(NCc2cccs2)c2oc(C[C@H](C)N)c(Br)c2n1` [Compound 164, 2-[(S)-2-aminopropyl]-3-bromo-7-thenylamino-5-vinyl-1-oxa-4-azaindene], in the test with ATXN3-HiBiT protein, the negative-log EC50 (pEC50) is 5.30 to 6.30. Besides, the pIC50 (in test [1]; with total ATXN3 protein) was 5.00 to 5.30 each time.
Compound `N[C@@H](CO)C(F)(F)c1oc2c(NCc3cccs3)cc(Cl)nc2c1Cl` [Compound 190, (S)-2-amino-3-(3,5-dichloro-7-thenylamino-1-oxa-4-aza-2-indenyl)-3,3-difluoro-1-propanol] had a pEC50 with ATXN3-HiBiT protein of 5.30 to 6.30. The pIC50 (in test [1]; with total ATXN3 protein) was 5.30 to 6.30 each time.
The compound `C[C@H](N)Cc1oc2c(NCc3ccco3)cc(Cl)nc2c1C#N` [Compound 238, 2-[(S)-2-aminopropyl]-5-chloro-7-(furfurylamino)-1-oxa-4-aza-3-indenecarbonitrile] showed a pEC50 in the test on ATXN3-HiBiT protein of 4.40 to 5.00. Moreover, the pIC50 (in test [1]; in the test on total ATXN3 protein) was 4.40 to 5.00 each time.
For the compound `C[C@H](N)Cc1oc2c(NCc3cccs3)cc(Cl)nc2c1-c1ccnn1C` [Compound 316, 2-[(S)-2-aminopropyl]-5-chloro-3-(1-methyl-5-pyrazolyl)-7-thenylamino-1-oxa-4-azaindene], the pEC50 in the test on ATXN3-HiBiT protein was 4.40 to 5.00. For the same compound, the pIC50 (in test [1]; in the test on total ATXN3 protein) was 4.40 to 5.00 throughout.
On to `N[C@@H](CCF)Cc1oc2c(NCc3cccs3)cc(Cl)nc2c1Br` [Compound 145, 2-[(R)-2-amino-4-fluorobutyl]-3-bromo-5-chloro-7-thenylamino-1-oxa-4-azaindene], for which the pEC50 in the test on ATXN3-HiBiT protein is 6.30 to 7.00. Besides, the pIC50 (in test [1]; in the test with total ATXN3 protein) was 6.30 to 7.00 throughout.
`C[C@H](O)[C@H](N)Cc1oc2c(NCc3cccs3)cc(Cl)nc2c1Br` [Compound 125, (2S,3R)-3-amino-4-(3-bromo-5-chloro-7-thenylamino-1-oxa-4-aza-2-indenyl)-2-butanol] had a pEC50 in the test with ATXN3-HiBiT protein of 7.00 to 11.00. Moreover, the pIC50 (in test [1]; in the test with total ATXN3 protein) was 7.00 to 11.00 each time.
Regarding `C[C@H](N)Cc1oc2c(NCc3cccs3)cc(Cl)nc2c1C#N` [Compound 18, 2-[(S)-2-aminopropyl]-5-chloro-7-thenylamino-1-oxa-4-aza-3-indenecarbonitrile], the pEC50 in the test with ATXN3-HiBiT protein is 5.00 to 5.30. Also, the pIC50 – broadly, −log10 of the IC50, conventionally taken in molar units – in test [1] is 4.40 to 5.00; in the test with total ATXN3 protein, 5.00 to 5.30.
`C#Cc1c(C[C@@H](N)[C@H](C)F)oc2c(NCc3cccs3)cc(Cl)nc12` [Compound 123, 2-[(2R,3S)-2-amino-3-fluorobutyl]-5-chloro-3-ethynyl-7-thenylamino-1-oxa-4-azaindene] had a pEC50 in the test with ATXN3-HiBiT protein of 7.00 to 11.00. The pIC50 (in test [1]; with total ATXN3 protein) was 7.00 to 11.00 in each case.
As to `C[C@H](F)[C@H](N)Cc1oc2c(NCc3ccco3)cc(Cl)nc2c1Cl` [Compound 150, 2-[(2R,3S)-2-amino-3-fluorobutyl]-3,5-dichloro-7-(furfurylamino)-1-oxa-4-azaindene], the pEC50 in the test with ATXN3-HiBiT protein was 7.00 to 11.00. Besides, the pIC50 (in test [1]; with total ATXN3 protein) was 7.00 to 11.00 in each case.
`N[C@H](Cc1oc2c(NCc3cccs3)cc(Cl)nc2c1Br)[C@@H]1CCOC1` (single isomer, unassigned) [Compound 100] had a pEC50 in the test with ATXN3-HiBiT protein of 4.40 to 5.00. Besides, the values for the pIC50 (in test [1]; with total ATXN3 protein) were 5.30 to 6.30 and 5.00 to 5.30, respectively.
For the compound `C[C@H](N)Cc1oc2c(NCc3cccs3)cc(Cl)nc2c1-c1cccs1` [Compound 256, 2-[(S)-2-aminopropyl]-5-chloro-7-thenylamino-3-(2-thienyl)-1-oxa-4-azaindene], the pEC50 with ATXN3-HiBiT protein was 4.40 to 5.00. In addition, the values for the pIC50 (in test [1]; in the test with total ATXN3 protein) were 4.40 to 5.00 and 5.00 to 5.30, respectively.
In the case of `C#Cc1c(C[C@H](C)N)oc2c(NCc3cccs3)cc(Cl)nc12` [Compound 63, 2-[(2S)-2-aminopropyl]-5-chloro-3-ethynyl-N-(thiophen-2-ylmethyl)furo[3,2-b]pyridin-7-amine], in the test on ATXN3-HiBiT protein, the pEC50 was 7.00 to 11.00. In addition, the pIC50 (in test [1]; in the test with total ATXN3 protein) was 7.00 to 11.00 throughout.
For the compound `CC#C[C@@H](Cc1oc2c(NCc3cccs3)cc(Cl)nc2c1Br)NC` [Compound 295, 3-bromo-5-chloro-2-[(2R)-2-(methylamino)pent-3-yn-1-yl]-N-(thiophen-2-ylmethyl)furo[3,2-b]pyridin-7-amine], in the test with ATXN3-HiBiT protein, the pEC50 was 6.30 to 7.00. For the same compound, the pIC50 (in test [1]; with total ATXN3 protein) was 5.30 to 6.30 throughout.
`N[C@@H](CO)Cc1oc2c(NCc3ccco3)cc(Cl)nc2c1Br` [Compound 22, (R)-2-amino-3-[3-bromo-5-chloro-7-(furfurylamino)-1-oxa-4-aza-2-indenyl]-1-propanol] had a pEC50 with ATXN3-HiBiT protein of 7.00 to 11.00. The pIC50 (in test [1]; in the test with total ATXN3 protein) was 7.00 to 11.00 throughout.
Turning to `N[C@@H](CO)C(F)(F)c1oc2c(NCc3cccs3)cc(Cl)nc2c1Br` [Compound 192, (S)-2-amino-3-(3-bromo-5-chloro-7-thenylamino-1-oxa-4-aza-2-indenyl)-3,3-difluoro-1-propanol], in the test on ATXN3-HiBiT protein, the pEC50 is 6.30 to 7.00. In addition, the pIC50 (in test [1]; with total ATXN3 protein) was 6.30 to 7.00 throughout.
